The values that follow come from patent US9580487B2, “Method of treating stomach or bowel-related disorders by administering glucagon-like-peptide-2 (GLP-2) analogues” (Zealand Pharma A/S, priority 2005, dated 2017).

Entries after “also recorded” stand apart in the source; their conditions may differ. No end group written: not given here.

One experiment relates to Sprague Dawley rats. The experiment is described as follows: Crypt-villus length and muscularis thickness in the small intestine of SD rats. The class given is in vivo. As for the experimental part:
FIG. 12 is a set of graphs showing the effect of compound 1846 (SEQ ID NO:34) on epithelial crypt-villus height (FIG. 12A) and muscular thickness (FIG. 12B) in the jejunum (i.e., mid section of the small intestine). Sprague Dawley rats were treated intravenously with compound 1846 (SEQ ID NO:34) (0.62, 3.41 or 6.2 mg/kg once daily) for 5 days (n=6/dose group). Then the animals were sacrificed and small intestinal biopsies (1 cm) were collected 25 cm distal from the pyloric sphincter. The biopsies were fixed, embedded in paraffin, sectioned and stained with haematoxylin and eosin. Stained sections were examined under a microscope and crypt depth, villus height, crypt-villus length and muscularis thickness measured. […] Values are means±SEM. * P<0.05, relative to vehicle controls (0 mg/kg/d).
The effect of the clinical candidate, 1846 (SEQ ID NO:34), on crypt-villus length and muscularis thickness in the small intestine of SD rats was investigated. 1846 (SEQ ID NO:34) (0.62, 3.41 or 6.2 mg/kg/day, n=6 rats/dose group) was administered as an i.v. bolus, once daily for five consecutive days. Twenty-four hours after the last dose had been administered the rats were sacrificed and a 1 cm biopsy was excised from the jejunum (30 cm distal from the gastric duodenal junction) and from the ileum (30 cm proximal from the ileocaecal junction) for histological processing.

For another experiment, the system named is TNF-α. In words: Small intestinal tissue content of TNF-α (ELISA) in rats with indomethacin-induced inflammation. The class given is in vivo. The settings on record: for Tissue levels of TNF-α, proximal segment: indomethacin alone 97±14, control 34±7. As for the experimental part: Male Sprague Dawley rats were treated with vehicle (saline; group 1) or indomethacin (7 mg/kg s.c., once daily for two days; groups 2-7). […] On day 3, rats were sacrificed and upon necropsy, the small intestine was divided into three segments of equal length corresponding to 1) duodenum and proximal jejunum, 2) mid and distal jejunum and 3) ileum. Samples were immediately snap-frozen in liquid N2 and stored at −80° C. until analysis. Homogenization and extraction of cellular protein from small intestinal segments was performed according to the following procedure: Tissue segments were weighed and added a volume of 1.5 ml per gram tissue ice-cold (4° C.) extraction buffer (10 mM Tris-HCl (Sigma) and 1 mM EDTA (J. T. Baker), (pH 7.6) with 0.05% sodium azide (Fluka), 1% Tween-80 (Fluka), 2 mM phenylmethylsulfonyl fluoride (PMSF, Fluka) and 1 μg/ml of each of the protease inhibitors aprotinin, leupeptin and pepstatin A (Roche Diagnostics)). The tissue was cut into small bits with a pair of scissors and homogenized three times for 20 seconds (IKA UltraTurrax T25 homogenizer, Janke & Kunkel) at 9500 rpm with intermittent cooling on ice for 30 seconds. The homogenate was centrifuged at 20.000×g for 30 minutes at 4° C., the supernatant was collected and stored at −20° C. until analysis for TNF-α small intestinal protein extractions were analyzed for TNF-α using a commercially available ELISA kit according to the manufacturer's instructions (Rat Tumor Necrosis Factor-α UltraSensitive ELISA kit, Biosource International Inc.). The assay has a detection limit of 0.7 pg/ml. Protein extractions were analyzed for total protein content using a commercially available assay (DC protein assay, Bio-Rad Laboratories Ltd.). Small intestinal tissue levels of TNF-α were expressed relative to total protein. […] Values are means±SEM. * P<0.05 vs. indomethacin (group 2).
At sacrifice, however the small intestine was separated into three segments of equal length (proximal, mid and distal). TNF-α concentrations were measured in each of the individual segments using a commercially available ELISA kit.
On the technique in general: ELISA stands for enzyme-linked immunosorbent assay.

As for “[Gly2, Glu3, Ser8,11, Leu10, Ala16,24,28]hGLP-2(1-33)-(Lys)6-NH2 (HGEGSFSSELSTILDALAARDFIAWLIATKITDKKKKKK-NH2) [Compound 1846]”, the “Muscular thickness of the jejunum” value in the experiment on Sprague Dawley rats (0.62, 3.41 or 6.2 mg/kg i.v. once daily for 5 days) was “no effect on the muscular thickness of the jejunum”. The Crypt-villus length result with Sprague Dawley rats (0.62, 3.41 or 6.2 mg/kg i.v. once daily for 5 days, jejunum (and ileum)) was “dose-dependent increases in crypt-villus length; also recorded: dose-dependently increased mean crypt-villus length in the jejunum and ileum”. Moreover, the “Muscularis thickness in the ileum” value in the experiment with Sprague Dawley rats (0.62, 3.41 or 6.2 mg/kg/day i.v. for five days) was “dose-dependently increased”.
Regarding “[Gly2, Glu3, Thr5, Ser8, Leu10, Ala11,16,24,28]hGLP-2(1-33)-(Lys)6-NH2 (HGEGTFSSELATILDALAARDFIAWLIATKITDKKKKKK-NH2) [Compound 1848]”, the “Tissue levels of TNF-α, proximal segment” value is given as 45±14 pg/mg protein in the experiment on TNF-α (8 nmol/kg), 44±9 pg/mg protein in the experiment with TNF-α (40 nmol/kg) and 45±7 pg/mg protein in the experiment with TNF-α (200 nmol/kg). Besides, the “Small intestinal tissue levels of TNF-α (in words)” value with TNF-α (8, 40 or 200 nmol/kg, indomethacin-treated rats) is reported as “significantly decreased small intestinal tissue levels of the proinflammatory cytokine TNF-α”. Moreover, the “Tissue levels of TNF-α, mid segment (in words)” value with TNF-α (40 or 200 nmol/kg, indomethacin alone 108±9 pg/mg protein) is on record as “significantly reduced tissue levels of TNF-α”. Also, the “TNF-α levels, distal segment (in words)” value with TNF-α (indomethacin alone 75±5 pg/mg protein) was “inhibitory effect on TNF-α levels in the distal segment but the effect was less pronounced compared to the other segments”. The “TNF-α: efficacy compared with prednisolone” value with TNF-α (vs prednisolone 10 mg/kg) is “more efficacious than prednisolone in the proximal and mid segments”.
